# In US10377770B2 (Novartis AG, priority 2015, dated 2019):
# Target: C-Raf FL (full length CRAF with Y340E and Y341E activating mutations, co-expressed with h14-3-3 zeta) (Homo sapiens (Human), UniProt P04049, Y340E/Y341E)
# Test: In vitro Raf activity determination, AlphaScreen p-MEK readout, c-Raf (C-Raf FL)
# Assay type: biochemical
# Settings: c-Raf approximately 4 nM, ATP 1 μM, pre-incubation 60 minutes, reaction 1 hour
# How it was run: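 Phosphorylation of kinase-dead biotinylated MEK1 (~10 nM) by C-Raf FL (~4 nM) read by AlphaScreen luminescence with anti-phospho-MEK1/2 after EDTA stop. ATP was 1 μM, with a 1 h reaction at room temperature. Compounds were pre-incubated with enzyme and substrate for 60 min in Tris/MgCl2 buffer, pH 7.5.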
# Chain of C-Raf FL (full length CRAF with Y340E and Y341E activating mutations, co-expressed with h14-3-3 zeta) (P04049 whole entry Y340E/Y341E): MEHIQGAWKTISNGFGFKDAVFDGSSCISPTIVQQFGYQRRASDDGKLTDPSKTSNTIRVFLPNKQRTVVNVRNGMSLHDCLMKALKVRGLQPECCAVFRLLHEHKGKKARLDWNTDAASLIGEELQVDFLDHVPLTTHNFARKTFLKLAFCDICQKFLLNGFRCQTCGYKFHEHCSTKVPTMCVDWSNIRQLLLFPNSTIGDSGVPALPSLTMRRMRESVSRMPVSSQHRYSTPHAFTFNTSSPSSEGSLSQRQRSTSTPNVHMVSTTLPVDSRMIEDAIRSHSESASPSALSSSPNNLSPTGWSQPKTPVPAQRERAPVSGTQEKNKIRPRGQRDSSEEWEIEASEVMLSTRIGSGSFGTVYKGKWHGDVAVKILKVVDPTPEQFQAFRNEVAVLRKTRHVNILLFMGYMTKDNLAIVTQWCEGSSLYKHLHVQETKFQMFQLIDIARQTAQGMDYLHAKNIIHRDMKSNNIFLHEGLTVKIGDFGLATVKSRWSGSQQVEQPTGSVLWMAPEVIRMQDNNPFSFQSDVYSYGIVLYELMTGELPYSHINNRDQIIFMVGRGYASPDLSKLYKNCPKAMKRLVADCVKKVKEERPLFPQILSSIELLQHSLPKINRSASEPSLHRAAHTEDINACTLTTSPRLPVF
# Chain of C-Raf FL (full length CRAF with Y340E and Y341E activating mutations, co-expressed with h14-3-3 zeta) (P63104 whole entry partner): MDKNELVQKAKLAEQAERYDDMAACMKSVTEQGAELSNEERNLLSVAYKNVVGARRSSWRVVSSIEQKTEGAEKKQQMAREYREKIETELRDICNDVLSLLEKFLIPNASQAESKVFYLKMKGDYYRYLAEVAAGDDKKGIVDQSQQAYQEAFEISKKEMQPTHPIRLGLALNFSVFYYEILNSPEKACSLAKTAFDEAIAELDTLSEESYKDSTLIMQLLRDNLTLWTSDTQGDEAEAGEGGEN
row,SMILES,IC50 [nM]
1,"Cc1ccc(NC(=O)c2ccnc(C(F)(F)F)c2)cc1-c1cnc2c(c1)N1CCOC[C@@H]1C[C@@H]2OCCO [Example 509, N-(3-((4aS,6S)-6-(2-hydroxyethoxy)-1,2,4,4a,5,6-hexahydro-[1,4]oxazino[4,3-a][1,5]naphthyridin-9-yl)-4-methylphenyl)-2-(trifluorometh-yl)isonicotinamide]",0.2
2,"Cc1ccc(NC(=O)c2ccnc(C(C)(C)F)c2)cc1-c1cc(F)c2c(c1)N1CCOC[C@@H]1[C@](F)(CO)C2 [Example 438, N-(3-((4aR,5S)-5,7-difluoro-5-(hydroxymethyl)-1,2,4,4a,5,6-hexahydro-[1,4]oxazino[4,3-a]quinolin-9-yl)-4-methylphenyl)-2-(2-fluoropropan-2-yl)isonicotinamide]",0.8
3,"Cc1ncc(NC(=O)c2cccc(C(F)(F)F)c2)cc1-c1ccc2c(c1)N1CCOC[C@H]1[C@](CO)(CF)C2 [Example 409, N-(5-((4aR,5R)-5-(fluoromethyl)-5-(hydroxymethyl)-1,2,4,4a,5,6-hexahydro-[1,4]oxazino[4,3-a]quinolin-9-yl)-6-methylpyridin-3-yl)-3-(trifluoromethyl)benzamide]",0.4
4,"Cc1ccc(NC(=O)c2ccnc(C(F)(F)F)c2)cc1-c1ccc2c(c1)N1CCOC[C@H]1C[C@H]2O [Example 4, N-(3-((4aR,6R)-6-hydroxy-1,2,4,4a,5,6-hexahydro-[1,4]oxazino[4,3-a]quinolin-9-yl)-4-methylphenyl)-2-(trifluoromethyl)isonicotinamide]",0.0062
5,"Cc1ccc(NC(=O)c2cnnc(C(F)(F)F)c2)cc1-c1cc(F)c2c(c1)N1CCOC[C@@H]1[C@@](F)(CO)C2 [Example 428, N-(3-((4aR,5R)-5,7-difluoro-5-(hydroxymethyl)-1,2,4,4a,5,6-hexahydro-[1,4]oxazino[4,3-a]quinolin-9-yl)-4-methylphenyl)-6-(trifluoromethyl)pyridazine-4-carboxamide]",0.1
6,"Cc1ccc(NC(=O)c2ccnc(C(F)(F)F)c2)cc1-c1cc2n(c(=O)c1)CCC1COCCN21 (racemic) [Example 94, (rac)-N-(4-methyl-3-(8-oxo-2,4,4a,5,6,8-hexahydro-1H-pyrido[2′,1′:2,3]pyrimido[6,1-c][1,4]oxazin-10-yl)phenyl)-2-(trifluoromethyl)isonicotinamide]",0.019
7,"Cc1ccc(NC(=O)c2ccnc(C(C)(F)F)c2)cc1-c1cnc2c(c1)N1CCOC[C@H]1C(F)(F)[C@H]2O [Example 164, N-(3-((4aS,6S)-5,5-difluoro-6-hydroxy-1,2,4,4a,5,6-hexahydro-[1,4]oxazino[4,3-a][1,5]naphthyridin-9-yl)-4-methylphenyl)-2-(1,1-difluoroethyl)isonicotinamide]",0.43
8,"Cc1ccc(NC(=O)c2ccnc(C(C)(F)F)c2)cc1-c1ccc2c(c1)N1CCOCC1C(CO)C2 (racemic) [Example 60, (rac)-2-(1,1-difluoroethyl)-N-(3-(5-(hydroxymethyl)-1,2,4,4a,5,6-hexahydro-[1,4]oxazino[4,3-a]quinolin-9-yl)-4-methylphenyl)isonicotinamide]",0.019
9,"Cc1ccc(NC(=O)c2ccnc(C(F)(F)F)c2)cc1-c1ccc2c(c1)N1CCOCC1C(CS(C)(=O)=O)C2 (racemic) [Example 363, (rac)-N-(4-methyl-3-(5-((methylsulfonyl)methyl)-1,2,4,4a,5,6-hexahydro-[1,4]oxazino[4,3-a]quinolin-9-yl)phenyl)-2-(trifluoromethyl)isonicotinamide]",0.1
10,"Cc1ccc(NC(=O)c2ccnc(C(F)(F)F)c2F)cc1-c1cnc2c(c1)N1CCOCC1C(C)(C)C2O (stereo not shown) [Example 337, 3-fluoro-N-(3-(6-hydroxy-5,5-dimethyl-1,2,4,4a,5,6-hexahydro-[1,4]oxazino[4,3-a][1,5]naphthyridin-9-yl)-4-methylphenyl)-2-(trifluoromethyl) isonicotinamide]",0.3
11,"Cc1ccc(NC(=O)c2ccnc(C(F)(F)F)c2)cc1-c1cnc2c(c1)N1CCOC[C@H]1C[C@H]2OCCO [Example 508, N-(3-((4aR,6R)-6-(2-hydroxyethoxy)-1,2,4,4a,5,6-hexahydro-[1,4]oxazino[4,3-a][1,5]naphthyridin-9-yl)-4-methylphenyl)-2-(trifluoromethyl)iso-nicotinamide]",0.2
12,"Cc1ncc(NC(=O)c2ccnc(C(C)(F)F)c2)cc1-c1ccc2c(c1)N1CCOCC1CC2O (racemic) [Example 11, (rac)-2-(1,1-difluoroethyl)-N-(5-(6-hydroxy-1,2,4,4a,5,6-hexahydro-[1,4]oxazino[4,3-a]quinolin-9-yl)-6-methylpyridin-3-yl)isonicotinamide]",0.0098
13,"Cc1ccc(NC(=O)c2cnnc(C(F)(F)F)c2)cc1-c1ccc2c(c1)N1CCOC[C@H]1[C@](F)(CF)C2 [Example 475, N-(3-((4aS,5S)-5-fluoro-5-(fluoromethyl)-1,2,4,4a,5,6-hexahydro-[1,4]oxazino[4,3-a]quinolin-9-yl)-4-methylphenyl)-6-(trifluorometh-yl)pyridazine-4-carboxamide]",0.4
14,"Cc1ccc(NC(=O)c2ccnc(C(C)(F)F)c2)cc1-c1cnc2c(c1)N1CCOC[C@H]1C[C@@]2(O)C(F)(F)F (racemic) [Example 169, rac-cis-2-(1,1-difluoroethyl)-N-(3-(6-hydroxy-6-(trifluoromethyl)-1,2,4,4a,5,6-hexahydro-[1,4]oxazino[4,3-a][1,5]naphthyridin-9-yl)-4-methylphenyl)isonicotinamide]",0.032
15,"Cc1ccc(NC(=O)c2cc(Cl)nc(C(F)(F)F)c2)cc1-c1ccc2c(c1)N1CCOC[C@H]1[C@](F)(CO)C2 [Example 391, 2-chloro-N-(3-((4aS,5S)-5-fluoro-5-(hydroxymethyl)-1,2,4,4a,5,6-hexahydro-[1,4]oxazino[4,3-a]quinolin-9-yl)-4-methylphenyl)-6-(trifluoromethyl)isonicotinamide]",6.8
16,"Cc1ccc(NC(=O)c2ccnc(C(F)(F)F)c2)cc1-c1ccc2c(c1)N1CCOCC1CC2N (racemic) [Example 28, (rac)-N-(3-(6-amino-1,2,4,4a,5,6-hexahydro-[1,4]oxazino[4,3-a]quinolin-9-yl)-4-methylphenyl)-2-(trifluoromethyl)isonicotinamide]",0.059
17,"Cc1ccc(NC(=O)c2ccnc(C(F)(F)F)c2)cc1-c1cnc2c(c1)C1(C)CCOCCC1C(=O)N2CCO (single isomer, unassigned) [Example 355, N-(3-((5a,11b-trans)-7-(2-hydroxyethyl)-11b-methyl-6-oxo-1,2,4,5,5a,6,7,11b-octahydrooxepino[4,5-c][1,8]naphthyridin-10-yl)-4-methylphenyl)-2-(trifluoromethyl)isonicotinamide]",1.2
18,"Cc1ncc(NC(=O)c2cccc(C(F)(F)F)c2)cc1-c1cnc2c(c1)N1CCOC[C@@H]1[C@H](CO)C2 [Example 493, N-(5-((4aS,5R)-5-(hydroxymethyl)-1,2,4,4a,5,6-hexahydro-[1,4]oxazino[4,3-a][1,5]naphthyridin-9-yl)-6-methylpyridin-3-yl)-3-(trifluorometh-yl)benzamide]",0.1
19,"Cc1ccc(NC(=O)c2ccnc(C(C)(F)F)c2)cc1-c1ccc2c(c1)N1CCOCC1C(F)(CO)C2 (single isomer, unassigned) [Example 82, 2-(1,1-difluoroethyl)-N-(3-(5-fluoro-5-(hydroxymethyl)-1,2,4,4a,5,6-hexahydro-[1,4]oxazino[4,3-a]quinolin-9-yl)-4-methylphenyl)isonicotinamide]",0.17
